Measurements taken from patent US20230255906A1, “Targeting Serpin B9 in Cancer” (The Brigham and Women`s Hospital, Inc., priority 2020, published 2023).
One block for each molecule: values may come before it.

Experiments:
SERPINB9 [1] = target: T1, SERPINB9 (Homo sapiens, UniProt P50453); test: Ligand-detected NMR (DLB, STD, CPMG-R2); assay type: binding
T1 construct: A construct of human SERPINB9 covering residues 2-376 in the pFastBacl vector; made in house; host or cells: insect Tni (Trichoplusia ni) cells, baculovirus
T1 sequence (P50453 2-376): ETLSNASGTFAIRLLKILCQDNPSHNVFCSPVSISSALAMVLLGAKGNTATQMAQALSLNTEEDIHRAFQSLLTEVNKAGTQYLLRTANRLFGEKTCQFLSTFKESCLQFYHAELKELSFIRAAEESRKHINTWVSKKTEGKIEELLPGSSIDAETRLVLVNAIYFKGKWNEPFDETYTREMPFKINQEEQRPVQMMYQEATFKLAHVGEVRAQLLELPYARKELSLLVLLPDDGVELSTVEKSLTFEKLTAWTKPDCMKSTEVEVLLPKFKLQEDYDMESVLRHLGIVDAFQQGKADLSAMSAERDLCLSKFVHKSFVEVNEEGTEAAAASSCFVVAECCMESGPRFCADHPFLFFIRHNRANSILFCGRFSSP
Excerpt: Ligand-focused NMR. To test the binding of Compound 27 and Compound 225 to SERPINB9, we used three ligand-detected nuclear magnetic resonance (NMR) methods: differential line broadening (DLB), saturation transfer difference (STD), and Carr-Purcell-Meiboom-Gill-transverse relaxation rate (CPMG-R2). […] Second, on-resonance saturation of SERPINB9 decreased the intensity of compound peaks in the STD experiment, indicating transmission of magnetization energy from SERPINB9 to proximal ligands. Finally, as ligands engaging the target protein relax faster (compared to free small molecules that have slow transverse relaxation rates in CPMG-R2 experiments), we saw a decreased relaxation time in the presence of a protein directly indicating binding of the ligand to that protein.

SERPINB9 [2] = target: T1, SERPINB9; test: Isothermal titration calorimetry (ITC); assay type: binding; conditions: 20 μM SERPINB9 titrated with 200 μM compound, single site model
Protocol: In an attempt to produce a soluble variant of Sb9, a construct was designed in which a maltose-binding protein (MBP) was added at the N-terminus (FIG. 4B). Sb9 was soluble in multiple growth media conditions using this strategy. The condition (1 mM IPTG, 37° C., 3 h) for best expression was selected for biomass production with 5 L culture. The cells were lysed and clarified by centrifugation. The fusion protein was then captured by Ni-NTA affinity purification, such that it was eluted using high concentration imidazole. Then, the resulting protein was further purified by anionic exchange chromatography using a MonoQ column and a NaCl gradient for elution. An amount of 31.4 mg protein was obtained. The purified Sb9 protein was characterized by SDS-PAGE and MALDI-TOF mass spectrometry (MS). A construct of human SERPINB9 covering residues 2-376 in the pFastBacl vector (Invitrogen) was overexpressed in insect Tni (Trichoplusia ni.) cells adapted for suspension culture in ESF921 medium (Expression systems). Cells were grown at 27° C. to a density of ˜2 million cells per mL, infected with baculovirus containing SERPINB9 construct, collected by centrifugation around 60 hrs post-infection, and stored at −80° C. […]

MBP-Sb9 = target: T2, MBP-Sb9 (Homo sapiens, UniProt P50453); test: Saturation-Transfer Difference (STD) NMR assay; assay type: binding; conditions: 420 μM compound, 45 μM Sb9 protein, PBS pH 7.0, 25° C.
T2 construct: made in house
T2 sequence (P50453 2-376): T1 sequence (P50453 2-376)
Excerpt: The Saturation-Transfer Difference (STD) NMR assay was used to evaluate the binding of the compound of Formula (III) to Sb9. […] The saturation period was 3.0 seconds with irradiation at 0 ppm (on-resonance excitation) and −20 ppm (off-resonance excitation). The number of scans was 160 for the on and off-resonance spectra, respectively. Spectra were processed using Topspin software and apodized with exponential multiplication with 1.0 Hz line-broadening.
The Saturation-Transfer Difference (STD) NMR assay was used to evaluate the binding of the compounds of Formulas (I) and (II) to Sb9. […] The saturation period was 3.0 seconds with irradiation at 0.7 ppm (on-resonance excitation) and 20 ppm (off-resonance excitation). The number of scans was 800. The spectra were processed using Topspin software with 1.0 Hz line-broadening.
The Saturation-Transfer Difference (STD) NMR assay as described herein was used to evaluate the binding of the compound of Formula (III) to Sb9.

cancer cells = test: Caspase-3 immunofluorescence in cancer cells; assay type: cell-based; conditions: 200 μM, 48 hrs
Protocol: 1×10^4 cancer cells were seeded in an 8-well chamber and treated with 200 μM of the compounds of Formulas (I) and (II) for 48 hrs. Controls were the equal amount of DMSO. Cells were stained with anti-caspase3. DAPI was used to counterstain the cell nuclei. The stained tissue sections were visualized using an EVOS™ FL Auto 2 Imaging System.

4T1 breast tumors = test: 4T1 breast tumor model in BALB/c mice; assay type: in vivo, mouse; conditions: i.p. twice a day 14 days
Protocol: (§1) Mice were anesthetized with isoflurane, and tumor cell lines (B16, A375, and 4T1) were gently injected subcutaneously in the flanks or mammary glands of mice. One hundred thousand cells (1×10^5 cells) were injected per mouse for most of the experiments. However, twenty-five thousand cells (25×10^3 cells) were injected per mouse for the experiments using the compound of Formula (III). Upon 4 hrs post-implantation, 300 μg of the compound of Formula (III) was administered twice a day intraperitoneally for 14 days. Tumor growth was monitored three times per week by digital caliper (Fisherbrand™ Traceable™ Digital Calipers).
Sb9 is highly expressed in human primary breast tumor cells (FIG. 6D) and in the stromal cells within the TME (FIGS. 6D-6E). Whether the compound of Formula (III) could be used to treat mice implanted with 4T1 breast tumor cells was therefore determined. […] Treatment with the compound of Formula (III) increased the median survival time (MST) of mice bearing 4T1 breast tumors and receiving treatment with the compound of Formula (III) as compared to mice bearing 4T1 breast tumors and not receiving treatment (MST=28 days vs MST=22 days, respectively) (FIG. 6G).
For mouse Breast Cancer model, 1×10^5 4T1 cells were subcutaneously implanted into the fourth mammary pad of BABL/c mice, and mice were separated randomly into three groups: Control, compound of Formula (I), and compound of Formula (II). In the compound of Formula (I) group, mice were treated with the compound of Formula (I) for 14 days consecutively ([…], i.p, twice a day). In the compound of Formula (II) group, mice were administrated the compound of Formula (II) 14 days consecutively (300 μg/mouse, i.p, twice a day). Tumor sizes were measured every 3 days from day 5 post-tumor implantation and calculated with formula length×width^2/2.

[3] = test system: B16-WT mouse melanoma tumors; test: B16 melanoma tumor model in C57BL/6 mice; assay type: in vivo
Protocol: as §1
The anti-tumor activity of the compound of Formula (III) in vivo was assessed. […] Treatment with the compound of Formula (III) increased the median survival time (MST) of mice bearing B 16-WT mouse melanoma tumors and receiving treatment with the compound of Formula (III) as compared to mice bearing B16-WT melanoma tumors and not receiving treatment (MST=39 days vs MST=26 days, respectively) (FIG. 51B). Next, the effect of the compound of Formula (III) on tumor immunity was examined.
The efficacy of the compound of Formula (III) was assessed in C57BL/6J mice (FIG. 18). B16 mouse melanoma cells were implanted subcutaneously into the right flanks of C57BL/6J mice, and the mice were randomized into three groups: (1) no treatment (control), (2) treatment with anti-PD1, and (3) treatment with Formula (III). The mice in the anti-PD1 group received 200 μg of anti-PD1 iv every 3 days, and those in the Formula (III) group received 300 μg of Formula (III) twice a day consecutively for 14 days.
A survival study using the compound of Formula (IV) in mice harboring B16 melanoma was performed. Mice implanted with B16 tumors were treated with the compound of Formula (IV) (n=8) and compared to a control group having B16 tumors and not receiving treatment with the compound of Formula (IV) (n=8).

B16 melanoma cells = test: Caspase-3 activity assay (EnzChek Caspase-3 Assay Kit), caspase-3 induction in tumor cells; assay type: cell-based, mouse
How it was run: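 B16 melanoma cells exposed to compounds for 24 h, lysed on ice 30 min, and lysate incubated with Z-DEVD-R110 substrate about 30 min at room temperature. Fluorescence read at ~496/520 nm against untreated-cell and no-enzyme controls; caspase-3 induction serves as surrogate for GrB activity from Sb9 inhibition.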

- binding to SERPINB9 by ligand-detected NMR (SERPINB9 [1]): SERPINB9 binders
- Kd (SERPINB9 [2]): 21.5 µM
Compound: CCN(C)C(=O)c1ccc2nc(-c3ccccc3)oc2c1 [Compound 27, N-ethyl-N-methyl-2-phenyl-1,3-benzoxazole-6-carboxamide]

- binding to SERPINB9 by ligand-detected NMR (SERPINB9 [1]): SERPINB9 binders
- Kd (SERPINB9 [2]): 28.8 µM
Compound: CCOc1ccc(C(=O)NCc2ccccc2)cc1O [Compound 227, N-benzyl-4-ethoxy-3-hydroxybenzamide]

Compound: COC(=O)c1cc(N)c(O)cc1NC(=O)OC(C)(C)C [Formula (I), methyl 5-amino-2-((tert-butoxycarbonyl)amino)-4-hydroxybenzoate]
- binding to MBP-Sb9 by STD NMR (MBP-Sb9): confirmed the binding activities
- caspase-3 expression compared to DMSO (cancer cells): significantly increased caspase-3 expression
- tumor size vs Control group (4T1 breast tumors; Day 11 post-tumor implantation): significantly decreased
- tumor size vs Control group (4T1 breast tumors; Day 14 post-tumor implantation): significantly decreased

Compound: COC(=O)c1cc(N)c(O)cc1NC(=O)c1ccccc1 [Formula (II), methyl 5-amino-2-benzamido-4-hydroxybenzoate]
- binding to MBP-Sb9 by STD NMR (MBP-Sb9): confirmed the binding activities
- caspase-3 expression compared to DMSO (cancer cells): significantly increased caspase-3 expression
- increase of caspase-3 expression, comparison between compounds (cancer cells): higher than the group treated with the compound of Formula (I)
- tumor size vs Control group (4T1 breast tumors; Day 14 post-tumor implantation): significantly decreased

Compound: NC(=O)c1ccc(O)c(O)c1 [Formula (IV), 3,4-dihydroxybenzamide]
- binding to MBP-Sb9 by STD NMR (MBP-Sb9): clearly show inter-molecular interaction of all aromatic peaks
- tumor size vs Control group ([3]; Day 22 post-tumor implantation (FIG. 17A)): decreased
- melanoma progression in vivo ([3]; mice bearing B16 tumors, n=8 (FIG. 17A)): suppressed melanoma progression
- median survival time (MST) ([3]; mice bearing B16 tumors, n=8 (FIG. 17B)): 34 days

Compound: CCOC(=O)CCNC(=O)c1ccc2nc(-c3cccc(OC)c3)oc2c1 [ethyl N-{[2-(3-methoxyphenyl)-1,3-benzoxazol-6-yl]carbonyl}-beta-alaninate]
- Ratio of caspase-3 activity to Formula (III) (B16 melanoma cells): 0.1049

Compound: COC(=O)C1CCN(C(=O)c2ccc3nc(-c4cccc(OC)c4)oc3c2)CC1 [methyl 1-{[2-(3-methoxyphenyl)-1,3-benzoxazol-6-yl]carbonyl}-4-piperidinecarboxylate]
- Ratio of caspase-3 activity to Formula (III) (B16 melanoma cells): 0.1376

Compound: COC(=O)CCCNC(=O)c1ccc2nc(-c3cccc(OC)c3)oc2c1 [methyl 4-({[2-(3-methoxyphenyl)-1,3-benzoxazol-6-yl]carbonyl}amino)butanoate]
- Ratio of caspase-3 activity to Formula (III) (B16 melanoma cells): 0.3858
